Tests used:
[1] = system: MDA-MB-231 cells; assay: Cytotoxicity of exosomes loaded with miRNA and DOX; assay type: cell-based; details: MDA-MB-231, after 24 h and 48 h
Method: The cell cultured on 96-well with Exo/CARExo for the collection of different time-points, the culture medium was collected and washed with PBS solution to remove any residual medium. Tetrazolium dye MTT (3-(4,5-dimethylthiazol-2-yl)-2,5-diphenyltetrazolium bromide) (Sigma-Aldrich) was mixed fresh medium with ratio of 1:9 and performed to assess for cell viability, which worked by acting on the respiratory chain. After 3 h of reaction, the MTT agent was removed and DMSO was added and left aside for 20 min to dissolve the formazan crystals and redistributed evenly into a 96-well. Absorbance was quantified by measuring at a wavelength of 570 nm to assess for cell viability.
Then, the present invention further increased the test group to six groups: Ctl, Drug, miR, CARExo, CARExo-Drug and CARExo-miR-Drug, to distinguish the validation of cancer cell killing efficacy (FIG. 10). […] Whereas CARExo or Drug only the effect was about 50%. It could be seen that the cocktail of exosomes can effectively and quickly kill cancer cells in the first time.

[2] = target: T1, YAP protein (Homo sapiens, UniProt P46937); assay: YAP inhibitor treatment of HEK293T-laden auxetic scaffold under cyclic tensile stimulation; assay type: cell-based
T1 construct: endogenous in cells; host or cells: HEK293T
T1 sequence (P46937 whole entry): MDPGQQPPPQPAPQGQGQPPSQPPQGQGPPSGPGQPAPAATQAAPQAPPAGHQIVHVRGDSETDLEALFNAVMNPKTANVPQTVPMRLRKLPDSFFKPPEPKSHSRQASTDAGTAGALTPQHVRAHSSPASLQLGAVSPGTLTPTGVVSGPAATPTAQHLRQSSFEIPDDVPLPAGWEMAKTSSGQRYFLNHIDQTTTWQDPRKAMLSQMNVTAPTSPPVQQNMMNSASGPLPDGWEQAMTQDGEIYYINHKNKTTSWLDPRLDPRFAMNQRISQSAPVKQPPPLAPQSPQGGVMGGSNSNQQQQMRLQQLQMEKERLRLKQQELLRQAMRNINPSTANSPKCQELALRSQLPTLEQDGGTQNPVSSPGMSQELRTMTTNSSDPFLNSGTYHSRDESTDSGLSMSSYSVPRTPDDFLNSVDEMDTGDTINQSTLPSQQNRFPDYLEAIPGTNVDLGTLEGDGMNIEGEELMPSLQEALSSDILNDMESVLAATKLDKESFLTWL
From the text: In the present invention, hydrogels with an auxetic structure were fabricated through a template moulding process. Considering that the cell-laden hydrogels with an auxetic structure should be compatible with a tensile bioreactor, three components were used to produce the construct: a Pluronic F-127 solution, GelMa, and cell-laden FGelMa. A positive mould was designed and printed using the BioX bioprinter (Cellink, Sweden) with the Pluronic F-127 (Sigma-Aldrich) solution at a concentration of 30 wt % in distilled water. […] For the mould printing, the stereolithography (STL) model was designed and developed using SolidWorks. The STL file was then converted into a g-code file, which was used to determine the movements and printing paths of the bioprinter, using sliver software. After housing the fugitive ink in a syringe barrel equipped with a luer-locked nozzle with an inner diameter of 150 μm, the fugitive ink was deposited on a glass slide by applying a pneumatic pressure at 170 kPa to form a filament with diameter of approximately 250 μm, using a syringe moving speed of 25 mm/s. The fugitive mould of the auxetic construct was fabricated layer-by-layer (150 μm per layer) until the final thickness of the construct reached 2.1 mm. […]

For COc1cccc2c1C(=O)c1c(O)c3c(c(O)c1C2=O)C[C@@](O)(C(=O)CO)C[C@@H]3O[C@H]1C[C@H](N)[C@H](O)[C@H](C)O1 [Drug, doxorubicin], the cell killing effect [1] was “about 50%”.
With Verteporfin the cell morphology [2] was “could not self-assemble to form three-dimensional spheroids” and the “secretion of exosomes relative to the cyclic tensile stimulation group” value [2] was 5%.

Reference: patent US12594344B2, “Production of exosomes and uses thereof” (CHINA MEDICAL UNIVERSITY, priority 2021, dated 2026)
